Laboratory results from paper PMC9866191, “Novel 9-Benzylaminoacridine Derivatives as Dual Inhibitors of Phosphodiesterase 5 and Topoisomerase II for the Treatment of Colon Cancer” (Molecules, 2023).

Columns and labels:
Experiment in all cases: NCI-60 one-dose screen
Assay type in all cases: cell-based
LOX IMVI = settings: Homo sapiens, Melanoma panel, single dose 10^−5 M, read-out: Growth inhibition %
NCI/ADR-RES = settings: Homo sapiens, Ovarian Cancer panel, single dose 10^−5 M, read-out: Growth inhibition %
NCI-H322M = settings: Homo sapiens, Non-small cell lung panel, single dose 10^−5 M, read-out: Growth inhibition %
SNB-19 = settings: Homo sapiens; SNB-19, CNS Cancer panel; single dose 10^−5 M; read-out: Growth inhibition %
MALME-3M = settings: Homo sapiens, Melanoma panel, single dose 10^−5 M, read-out: Growth inhibition %
M14 = settings: Homo sapiens; M14, Melanoma panel; single dose 10^−5 M; read-out: Growth inhibition %
HCC-2998 = settings: Homo sapiens; HCC-2998, Colon Cancer panel; single dose 10^−5 M; read-out: Growth inhibition %
OVCAR-5 = settings: Homo sapiens; OVCAR-5, Ovarian Cancer panel; single dose 10^−5 M; read-out: Growth inhibition %
A549/ATCC = settings: Homo sapiens, Non-small cell lung panel, single dose 10^−5 M, read-out: Growth inhibition %
UACC-257 = settings: Homo sapiens; UACC-257, Melanoma panel; single dose 10^−5 M; read-out: Growth inhibition %
NCI-H460 = settings: Homo sapiens; NCI-H460, Non-small cell lung panel; single dose 10^−5 M; read-out: Growth inhibition %
RXF 393 = settings: Homo sapiens; RXF 393, Renal Cancer panel; single dose 10^−5 M; read-out: Growth inhibition %
A498 = settings: Homo sapiens; A498, Renal Cancer panel; single dose 10^−5 M; read-out: Growth inhibition %
MCF7 = settings: Homo sapiens; MCF7, Breast Cancer panel; single dose 10^−5 M; read-out: Growth inhibition %
RPMI-8226 = settings: Homo sapiens; RPMI-8226, Leukemia panel; single dose 10^−5 M; read-out: Growth inhibition %
HOP-62 = settings: Homo sapiens; HOP-62, Non-small cell lung panel; single dose 10^−5 M; read-out: Growth inhibition %
TK-10 = settings: Homo sapiens; TK-10, Renal Cancer panel; single dose 10^−5 M; read-out: Growth inhibition %
OVCAR-4 = settings: Homo sapiens; OVCAR-4, Ovarian Cancer panel; single dose 10^−5 M; read-out: Growth inhibition %
SK-MEL-2 = settings: Homo sapiens; SK-MEL-2, Melanoma panel; single dose 10^−5 M; read-out: Growth inhibition %
U251 = settings: Homo sapiens, U-251; U251, CNS Cancer panel; single dose 10^−5 M; read-out: Growth inhibition %
SF-539 = settings: Homo sapiens; SF-539, CNS Cancer panel; single dose 10^−5 M; read-out: Growth inhibition %
NCI-H522 = settings: Homo sapiens; NCI-H522, Non-small cell lung panel; single dose 10^−5 M; read-out: Growth inhibition %
PC-3 = settings: Homo sapiens; PC-3, Prostate Cancer panel; single dose 10^−5 M; read-out: Growth inhibition %
MDA-MB-468 = settings: Homo sapiens; MDA-MB-468, Breast Cancer panel; single dose 10^−5 M; read-out: Growth inhibition %
SN12C = settings: Homo sapiens, Renal Cancer panel, single dose 10^−5 M, read-out: Growth inhibition %
NCI-H23 = settings: Homo sapiens; NCI-H23, Non-small cell lung panel; single dose 10^−5 M; read-out: Growth inhibition %
T-47D = settings: Homo sapiens, T47D, Breast Cancer panel, single dose 10^−5 M, read-out: Growth inhibition %
HOP-92 = settings: Homo sapiens; HOP-92, Non-small cell lung panel; single dose 10^−5 M; read-out: Growth inhibition %
SK-OV-3 = settings: Homo sapiens; SK-OV-3, Ovarian Cancer panel; single dose 10^−5 M; read-out: Growth inhibition %
HCT-116 = settings: Homo sapiens, read-out: Growth inhibition %
SF-295 = settings: Homo sapiens; SF-295, CNS Cancer panel; single dose 10^−5 M; read-out: Growth inhibition %
UACC-62 = settings: Homo sapiens; UACC-62, Melanoma panel; single dose 10^−5 M; read-out: Growth inhibition %

Compound	inhibition at 10 µM (LOX IMVI) [%]	inhibition at 10 µM (NCI/ADR-RES) [%]	inhibition at 10 µM (NCI-H322M) [%]	inhibition at 10 µM (SNB-19) [%]	inhibition at 10 µM (MALME-3M) [%]	inhibition at 10 µM (M14) [%]	inhibition at 10 µM (HCC-2998) [%]	inhibition at 10 µM (OVCAR-5) [%]	inhibition at 10 µM (A549/ATCC) [%]	inhibition at 10 µM (UACC-257) [%]	inhibition at 10 µM (NCI-H460) [%]	inhibition at 10 µM (RXF 393) [%]	inhibition at 10 µM (A498) [%]	inhibition at 10 µM (MCF7) [%]	inhibition at 10 µM (RPMI-8226) [%]	inhibition at 10 µM (HOP-62) [%]	inhibition at 10 µM (TK-10) [%]	inhibition at 10 µM (OVCAR-4) [%]	inhibition at 10 µM (SK-MEL-2) [%]	inhibition at 10 µM (U251) [%]	other results
c1ccc(CNc2c3ccccc3nc3ccccc23)cc1 [Compound 1, Acridin-9-yl-benzyl-amine]	80.2	62.4	53.7	60.6	62.6	67.7	61.8	54.3	71.5	47.3	89.7	58.1	83.4	88	92.3	54	51.3	56.8	39.2	61.5	inhibition at 10 µM (SF-539): 76%; inhibition at 10 µM (NCI-H522): 43.2%; inhibition at 10 µM (PC-3): 62.8%; inhibition at 10 µM (MDA-MB-468): 80.7%; inhibition at 10 µM (SN12C): 62.5%; inhibition at 10 µM (NCI-H23): 58.8%; inhibition at 10 µM (T-47D): 62.2%; inhibition at 10 µM (HOP-92): 74.1%; inhibition at 10 µM (SK-OV-3): 53.3%; inhibition at 10 µM (HCT-116): 91.6%; inhibition at 10 µM (SF-295): 62.4%; inhibition at 10 µM (UACC-62): 39%
COc1ccc2nc3ccccc3c(NCc3ccc(C)cc3)c2c1 [Compound 26, (2-Methoxyacridin-9-yl)-(4-methylbenzyl)-amine]	106	76.2	69.7	70.8	78	71.3	158	66	80.7	108	90	93.8	102	96.6	146	61	53	81.5	30	84.7	inhibition at 10 µM (SF-539): 89.3%; inhibition at 10 µM (NCI-H522): 73.6%; inhibition at 10 µM (PC-3): 88.6%; inhibition at 10 µM (MDA-MB-468): 119%; inhibition at 10 µM (SN12C): 76.4%; inhibition at 10 µM (NCI-H23): 71.7%; inhibition at 10 µM (T-47D): 69.4%; inhibition at 10 µM (SK-OV-3): 47.3%; inhibition at 10 µM (HCT-116): 91.4%; inhibition at 10 µM (SF-295): 76.4%; inhibition at 10 µM (UACC-62): 44.3%
COc1ccc(CNc2c3ccccc3nc3ccc(OC)cc23)cc1 [Compound 27, (2-Methoxyacridin-9-yl)-(4-methoxybenzyl)-amine]	175	83.8	76.5	77.3	92.9	80.5	158	69.3	85.4	93.4	93.5	103	106	130	148	65.9	66.4	81.6	59.1	83.9	inhibition at 10 µM (SF-539): 91.5%; inhibition at 10 µM (NCI-H522): 73.8%; inhibition at 10 µM (PC-3): 94.5%; inhibition at 10 µM (MDA-MB-468): 115%; inhibition at 10 µM (SN12C): 79.2%; inhibition at 10 µM (NCI-H23): 78.6%; inhibition at 10 µM (T-47D): 65.8%; inhibition at 10 µM (SK-OV-3): 52.9%; inhibition at 10 µM (HCT-116): 87.3%; inhibition at 10 µM (SF-295): 80.6%; inhibition at 10 µM (UACC-62): 57.4%
COc1ccc2nc3ccccc3c(NCc3ccc(Cl)cc3)c2c1 [Compound 29, (4-Chlorobenzyl)-(2-methoxyacridin-9-yl)-amine]	186	77.1	75.4	73.6	182	186	188	73.5	76.4	152	87.5	124	91.4	156	145	57.6	47.1	75.5	28.7	97.5	inhibition at 10 µM (SF-539): 106%; inhibition at 10 µM (NCI-H522): 65.3%; inhibition at 10 µM (PC-3): 80.5%; inhibition at 10 µM (MDA-MB-468): 131%; inhibition at 10 µM (SN12C): 77.9%; inhibition at 10 µM (NCI-H23): 71.7%; inhibition at 10 µM (T-47D): 50.7%; inhibition at 10 µM (SK-OV-3): 36%; inhibition at 10 µM (HCT-116): 93.2%; inhibition at 10 µM (SF-295): 74.2%; inhibition at 10 µM (UACC-62): 35.2%
